Data taken from patent US20070244056A1 (priority 2004, published 2007).

Assays:
[1] = system: Transgenic mice overexpressing human Cu/Zn-SOD G93A mutations; experiment: Experimental model for amyotrophic lateral sclerosis (SOD1 G93A transgenic mice); assay type: in vivo; details: glatiramer acetate at both dosages; riluzole 30 mg/kg per day; during the course of treatment
Procedure: Transgenic mice overexpressing human Cu/Zn-SOD G93A mutations ((B6SJL-TgN (SOD1-G93A) 1 Gur) and non-transgenic B6/SJL mice are purchased from Jackson Laboratories (Bar Harbor, Me., USA). The second generation of G1H mice are used.
A group of 15 mice serve as controls.
The drugs are administered in drinking water starting at 60 days of age.
The clinical condition of the mice is monitored daily starting at 40 days. The onset of clinical signs is scored by examining the mice for tremors and/or shaking of the limbs, the position of one or both hind limbs (hanging rather than splaying out) when the mice are suspended in the air by their tail. The age of clinical onset was determined by the age (days) at which loss of splay or tremors of hind limbs is observed. The loss of righting reflex determines the end stage of the disease. The mice are sacrificed if they could not right themselves within 30 seconds when placed on either side on a flat surface.
Mice are observed daily (including weekends) and weighed weekly. Motor performance is assessed from 40 days of age using the rotarod apparatus to measure the night activity of the mice from 8 p.m.-8 a.m.
Mice were perfused transcardially with 4% paraformaldehyde/0.9% NaCl solution, brains and whole spinal cord were dissected out, frozen in liquid nitrogen and cut in transverse sections of 20 μm on a sliding microtome. […]

[2] = system: human patients afflicted with an unspecified form of multiple sclerosis; details: administered alone; data of WO 00/74676; cited from earlier work
multiple sclerosis (MS) = details: daily subcutaneous injections, 20 mg/injection; cited from earlier work

Nc1nc2ccc(OC(F)(F)F)cc2s1 [riluzole, 2-amino-6-trifluoromethoxy benzothiazole]
running wheel activity (motor activity) [1]: more active during the course of treatment and maintain their motor activity longer than controls
EDSS score [2]: No effect
accumulation of hypointense lesions [2]: showed a trend toward reduction

L-glutamic acid polymer with L-alanine, L-lysine and L-tyrosine, acetate (salt) [glatiramer acetate]
running wheel activity (motor activity) [1]: more active during the course of treatment and maintain their motor activity longer than controls
appearance of "black holes" (multiple sclerosis (MS)): reduce
appearance of new lesions by magnetic resonance imaging (MRI) (multiple sclerosis (MS)): reduce
progression of disability (multiple sclerosis (MS)): reduce
relapse rates (multiple sclerosis (MS)): reduce
